{"source": "patent US8796327B2", "about": "“Method for inhibiting production of cytokines of T helper cell type II and/or inhibiting production of chemokines using brazilin” (China Medical University, priority 2010, dated 2014)", "key": {"[1]": {"test_system": "IL-5", "test": "ELISA of IL-5 in supernatant of EL-4 T lymphoma cells", "format": "cell-based, mouse", "conditions": "EL-4 cells", "method": "First, in an incubator containing 5 vol % of CO2 at 37° C., EL-4 mouse T lymphoma cells (commercially available from ATCC, Manassas, Va., America) were cultured in the DMEM culture medium (containing 10 wt % of thermally deactivated FBS), and were sub-cultured at a ratio of 1:3.\nThen, at a density of 5×10^5 counts/ml, the T lymphoma cells were bred in a six-well culture dish, and at the 0th minute, brazilin of different concentrations (0.3, 1, 3, 10, or 30 micromole (μM)) was added into the cell culture solution at an amount of 1 μl/ml-cell culture solution. Then, the cells were put into the incubator to be cultured therein. […] During the process of cell culture, the trypan blue exclusion assay was employed to observe effect of the brazilin on the cell viability, results of which are shown in Table 1 and FIG. 1.\nAt 4° C., the T lymphoma cells obtained from Experiment A were centrifugally rotated at a rotational speed of 1000 rpm and at 4° C. for 5 minutes, and the supernatant was collected and analyzed for cytokines.\nAn enzyme-linked immunosorbent assay (ELISA) kit (commercially available from R&D Systems, Inc., America) was used to analyze the expression of IFN-γ, IL-4, IL-5, and eotaxin cytokines in the aforesaid supernatant, results of which are shown in Table 2, Table 3, FIG. 2, and FIG. 3.\nIn Experiment B and the following Experiment C, all experimental data are presented in form of “mean±standard deviation”, and statistical discrepancy was analyzed by means of the One-way ANOVA and Newman-keuls post-hoc tests, in which it is considered that there is statistical discrepancy if p<0.05."}, "[2]": {"test_system": "mice with asthma", "test": "Airway (pulmonary) resistance determination, invasive body plethysmography with methacholine", "format": "in vivo, BALB/c mice", "conditions": "for pulmonary resistance Rrs (cm H2O/ml): OVA-sensitized BALB/c mice", "method": "In Example 2, mice with asthma were used to conduct in vivo experiments, and ovalbumin (OVA) was used as an allergen.\nThe mice were sensitized (or challenged) according to the steps shown in FIG. 9 (see Lee et al., Lentiviral-mediated GATA-3 RNAi decreases allergic airway inflammation and hyperresponsiveness. Molecular Therapy, 2008; 16:60-65, which is incorporated herein in its entirety by reference). First, 50 μg OVA (using 2 mg alumina (Alum, Alumlmuject, Pierce Chemical, Rockford, Ill., USA) as an adjuvant) was injected into six to eight-week-old BALB/c female mice (from National Laboratory Animal Center, Taiwan) by intraperitoneal injection (i.p.). At 0th, 14th, and 28th day, the mice were injected with OVA at the same dosage. Before the administration of OVA at the forty-first and the forty-second days, different dosages of brazilin (high dose: 430 μg/mice; low dose: 43 μg/mice) were administrated to the mice by intraperitoneal injection (i.p.) or intratracheal instillation (i.t.). During the fortieth to the forty-second days, 100 μg OVA was dissolved in 40 μl PBS, and was administrated to the mice by intranasal instillation (i.n.) (once everyday, for three days). At the forty-third day, airway hyperresponsiveness of the mice was observed. At the forty-sixth day, the mice were sacrificed and used to conduct the following Experiments E to G During the above procedure, it was observed if any toxicity response arises after the administration of brazilin to the mice. In this experiment, the mice administrated with OVA were used as a positive control, and the mice not administrated with OVA were used as a negative control.\nAirway (pulmonary) resistance determination was carried out by conducting invasive body plethysmography according to the Glaab's method (see Glaab et al., Repetitive measurements of pulmonary mechanics to inhaled cholinergic challenge in spontaneously breathing mice. J Appl Physiol, 2004; 97:1104-1111, which is incorporated herein in its entirety by reference). In this method, the increase of pulmonary resistance of mice administrated with methacholine is observed.\nFirst, BALB/c mice were anesthetized with 70 to 90 mg/kg-body weight of pentobarbital sodium (Sigma), and the trachea of the mice were cut to generate a bore, and the mice were subjected to external ventilation (150 breaths/minute) with a ventilator (Harvard Rodent Ventilator, model 683, Southnatick, Mass., USA) controlled by a computer to maintain the tidal volume at 0.3 ml and the terminal expiring positive pressure at 3 to 4 cm-H2O. A PE-50 pipeline was inserted into the gullets and reached to the chest position of the mice, and the pipeline was connected to a pressure transducer (LDS GOULD, Valley View, Ohio, USA), and the pressure, air flow rate, and the variation of air capacity in the lungs of the mice were recorded. Software (Model PNM-PCT100W, LDS PONEMAH Physiology Platform, LDS GOULD) was used to analyze the airway resistance. An atomizer was used to generate methacholine spray, which was then administrated to the mice via the ventilator. The data was obtained by deducting the pulmonary resistance (0.45 cm H2O.s.ml^−1) gained by the pipeline inserted into the trachea of the mice, wherein pulmonary resistance RL ratio=RL after methacholine nebulization/RL after PBS nebulization."}}, "data": [{"smiles": "Oc1ccc2c(c1)OC[C@]1(O)Cc3cc(O)c(O)cc3[C@H]21", "note": "[brazilin]", "values": [{"measurement": "expression of protein of IL-5 cytokine", "setting": "[1]; result in words", "value": "inhibited"}, {"measurement": "Concentration of IL-5 (pico-gram/ml)", "setting": "[1]; brazilin 0.3 μM + PMA + cAMP", "value": "2480 ± 515.9", "unit": "pico-gram/ml"}, {"measurement": "Concentration of IL-5 (pico-gram/ml)", "setting": "[1]; brazilin 0.3 μM, no PMA + cAMP", "value": "5.925 ± 3.462", "unit": "pico-gram/ml"}, {"measurement": "Concentration of IL-5 (pico-gram/ml)", "setting": "[1]; brazilin 1 μM + PMA + cAMP", "value": "2580 ± 402.8", "unit": "pico-gram/ml"}, {"measurement": "Concentration of IL-5 (pico-gram/ml)", "setting": "[1]; brazilin 1 μM, no PMA + cAMP", "value": "0.2422 ± 0.2422", "unit": "pico-gram/ml"}, {"measurement": "Concentration of IL-5 (pico-gram/ml)", "setting": "[1]; brazilin 3 μM + PMA + cAMP", "value": "2345 ± 392.6", "unit": "pico-gram/ml"}, {"measurement": "Concentration of IL-5 (pico-gram/ml)", "setting": "[1]; brazilin 3 μM, no PMA + cAMP", "value": "0.2422 ± 0.2422", "unit": "pico-gram/ml"}, {"measurement": "Concentration of IL-5 (pico-gram/ml)", "setting": "[1]; brazilin 10 μM + PMA + cAMP", "value": "1809 ± 337.9", "unit": "pico-gram/ml"}, {"measurement": "Concentration of IL-5 (pico-gram/ml)", "setting": "[1]; brazilin 10 μM, no PMA + cAMP", "value": "1.474 ± 0.9891", "unit": "pico-gram/ml"}, {"measurement": "Concentration of IL-5 (pico-gram/ml)", "setting": "[1]; brazilin 30 μM + PMA + cAMP", "value": "1292 ± 531.6", "unit": "pico-gram/ml"}, {"measurement": "Concentration of IL-5 (pico-gram/ml)", "setting": "[1]; brazilin 30 μM, no PMA + cAMP", "value": "0.0 ± 0.0", "unit": "pico-gram/ml"}, {"measurement": "pulmonary resistance Rrs (cm H2O/ml)", "setting": "[2]; methacholine 3.125 mg/ml, High dose (430 μg/mice)", "value": "2.535 ± 0.1251", "unit": "cm H2O/ml"}, {"measurement": "pulmonary resistance Rrs (cm H2O/ml)", "setting": "[2]; methacholine 3.125 mg/ml, Low dose (43 μg/mice)", "value": "2.237 ± 0.1567", "unit": "cm H2O/ml"}, {"measurement": "pulmonary resistance Rrs (cm H2O/ml)", "setting": "[2]; methacholine 6.25 mg/ml, High dose (430 μg/mice)", "value": "2.680 ± 0.1676", "unit": "cm H2O/ml"}, {"measurement": "pulmonary resistance Rrs (cm H2O/ml)", "setting": "[2]; methacholine 6.25 mg/ml, Low dose (43 μg/mice)", "value": "2.206 ± 0.0665", "unit": "cm H2O/ml"}, {"measurement": "pulmonary resistance Rrs (cm H2O/ml)", "setting": "[2]; methacholine 12.5 mg/ml, High dose (430 μg/mice)", "value": "3.247 ± 0.1368", "unit": "cm H2O/ml"}, {"measurement": "pulmonary resistance Rrs (cm H2O/ml)", "setting": "[2]; methacholine 12.5 mg/ml, Low dose (43 μg/mice)", "value": "2.432 ± 0.1259", "unit": "cm H2O/ml"}, {"measurement": "pulmonary resistance Rrs (cm H2O/ml)", "setting": "[2]; methacholine 25 mg/ml, High dose (430 μg/mice)", "value": "3.691 ± 0.1542", "unit": "cm H2O/ml"}, {"measurement": "pulmonary resistance Rrs (cm H2O/ml)", "setting": "[2]; methacholine 25 mg/ml, Low dose (43 μg/mice)", "value": "2.869 ± 0.1831", "unit": "cm H2O/ml"}, {"measurement": "airway resistance of the mice", "setting": "[2]; methacholine challenge, BALB/c mice, result in words", "value": "reduced"}]}]}
